In ChEMBL document CHEMBL1149754, “Synthesis and evaluation of a focused library of pyridine dicarbonitriles against prion disease” (Eur J Med Chem, 2008):

Experiments:
[1] = target: Major prion protein (Homo sapiens) (UniProt P04156); test: Binding affinity to human prion protein by surface plasmon resonance assay
[2] = target: Major prion protein (Mus musculus) (UniProt P04925); test: Binding affinity to mouse prion protein by surface plasmon resonance assay
[3] = Inhibition of PrPSc formation in mouse SMB cells at 10 uM relative to control; assay type: functional
[4] = Inhibition of PrPSc formation in mouse SMB cells; assay type: functional, cell-based
[5] = Inhibition of PrPSc formation in mouse SMB cells at 0.05 uM relative to control; assay type: functional
[6] = Inhibition of PrPSc formation in mouse SMB cells at 7.5 uM relative to control; assay type: functional
[7] = Toxicity against mouse SMB cells after 5 days by MTT assay; assay type: cell-based; conditions: 120 h
[8] = Inhibition of PrPSc formation in mouse SMB cells at 1 uM relative to control; assay type: functional
[9] = Inhibition of PrPSc formation in mouse SMB cells at 5 uM relative to control; assay type: functional
[10] = Toxicity against mouse SMB cells at 10 uM after 5 days by MTT assay; assay type: cell-based; conditions: 120 h

Sequence of Major prion protein (Mus musculus) (P04925 whole entry): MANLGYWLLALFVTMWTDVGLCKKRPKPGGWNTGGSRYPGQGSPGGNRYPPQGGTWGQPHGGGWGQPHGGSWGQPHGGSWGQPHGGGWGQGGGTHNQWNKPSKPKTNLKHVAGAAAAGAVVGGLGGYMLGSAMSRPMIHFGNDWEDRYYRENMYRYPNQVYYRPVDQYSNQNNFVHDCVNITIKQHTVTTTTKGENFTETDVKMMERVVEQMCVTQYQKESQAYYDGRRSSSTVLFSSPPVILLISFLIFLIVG

| SMILES | RUmax [1] | RUmax [2] | inhibition at 10 µM [3] | further results |
| --- | --- | --- | --- | --- |
| N#Cc1c(N)nc(Sc2ccc(Cl)cc2)c(C#N)c1-c1ccc(Cl)cc1 | 19.3% | 1.6% | 72% | – |
| N#Cc1c(N)nc(Sc2cccc(O)c2)c(C#N)c1-c1ccc(Cl)cc1 | – | – | 73% | – |
| N#Cc1c(N)nc(Sc2cccc(Cl)c2)c(C#N)c1-c1ccc2c(c1)OCCO2 | 11.3% | 4.3% | – | EC50 [4]: 2500 nM |
| N#Cc1c(N)nc(Sc2cccc(O)c2)c(C#N)c1-c1cccs1 | – | – | 77% | – |
| COC(=O)c1ccc(Sc2nc(N)c(C#N)c(-c3ccc4c(c3)OCCO4)c2C#N)cc1 | 6% | 0% | – | inhibition at 0.05 µM [5]: 23% |
| COC(=O)c1ccc(-c2c(C#N)c(N)nc(Sc3ccc(O)cc3)c2C#N)cc1 | – | – | – | inhibition at 7.5 µM [6]: 45% |
| N#Cc1c(N)nc(Sc2ccc(O)cc2)c(C#N)c1-c1ccc2c(c1)OCCO2 | – | – | – | Activity [7]: Toxic |
| N#Cc1c(N)nc(Sc2ccc(Cl)cc2)c(C#N)c1-c1ccc2c(c1)OCO2 | – | – | 67% | – |
| COC(=O)c1cccc(Sc2nc(N)c(C#N)c(-c3ccc(Cl)cc3)c2C#N)c1 | 6.2% | 0% | – | inhibition at 1 µM [8]: 63% |
| N#Cc1c(N)nc(Sc2ccccc2O)c(C#N)c1-c1ccc(Cl)cc1 | 9.1% | 0% | 76% | – |
| COC(=O)c1ccc(Sc2nc(N)c(C#N)c(-c3ccco3)c2C#N)cc1 | – | – | 69% | – |
| N#Cc1c(N)nc(SCc2ccccc2)c(C#N)c1-c1cccs1 | 55.5% | 52.6% | 81% | – |
| N#Cc1c(N)nc(Sc2ccc(O)cc2)c(C#N)c1-c1ccc2c(c1)OCO2 | – | – | 82% | – |
| N#Cc1c(N)nc(Sc2ccc(Cl)cc2)c(C#N)c1-c1ccco1 | 37% | 44.8% | 73% | – |
| N#Cc1c(N)nc(Sc2cccc(O)c2)c(C#N)c1-c1cccc(O)c1 | – | – | – | inhibition at 5 µM [9]: 36%; Activity [10]: Toxic |
| COC(=O)c1ccc(Sc2nc(N)c(C#N)c(-c3ccc(Cl)cc3)c2C#N)cc1 | – | – | – | Activity [7]: Toxic |
| COC(=O)c1ccc(-c2c(C#N)c(N)nc(Sc3cccc(O)c3)c2C#N)cc1 | 8.4% | 0% | 77% | – |
| N#Cc1c(N)nc(SCc2ccccc2)c(C#N)c1-c1ccc(Cl)cc1 | 8.6% | 0% | 92% | – |
| N#Cc1c(N)nc(Sc2ccc(Cl)cc2)c(C#N)c1-c1cccs1 | 8.8% | 0% | – | EC50 [4]: 3000 nM |
| N#Cc1c(N)nc(Sc2cccc(Cl)c2)c(C#N)c1-c1cccs1 | 124% | 72.2% | 84% | – |
| N#Cc1c(N)nc(Sc2ccc(O)cc2)c(C#N)c1-c1ccc(Cl)cc1 | – | – | 90% | – |
| N#Cc1c(N)nc(SCc2ccccc2)c(C#N)c1-c1cccc(O)c1 | 96.5% | 112% | 113% | – |
| N#Cc1c(N)nc(Sc2cccc(Cl)c2)c(C#N)c1-c1ccc2c(c1)OCO2 | 78.6% | 10.5% | 96% | – |
| N#Cc1c(N)nc(Sc2cccc(Cl)c2)c(C#N)c1-c1cccc(O)c1 | – | – | – | inhibition at 5 µM [9]: 36%; Activity [10]: Toxic |
| COC(=O)c1ccc(-c2c(C#N)c(N)nc(Sc3cccc(C(=O)OC)c3)c2C#N)cc1 | – | – | – | EC50 [4]: 8000 nM |
| N#Cc1c(N)nc(Sc2cccc(Cl)c2)c(C#N)c1-c1ccc(Cl)cc1 | – | – | 71% | – |
| N#Cc1c(N)nc(Sc2ccccc2)c(C#N)c1-c1ccc2c(c1)OCCO2 | 27.9% | 0% | 61% | – |

| SMILES | RUmax [1] | RUmax [2] | inhibition at 10 µM [3] | further results |
| --- | --- | --- | --- | --- |
| N#Cc1c(N)nc(Sc2cccc(O)c2)c(C#N)c1-c1ccc2c(c1)OCO2 | 250% | 138% | 75% | – |
| N#Cc1c(N)nc(Sc2cccc(O)c2)c(C#N)c1-c1ccc2c(c1)OCCO2 | – | – | 86% | – |
| COC(=O)c1ccc(-c2c(C#N)c(N)nc(Sc3ccccc3O)c2C#N)cc1 | 5.7% | 0% | 72% | – |
| COC(=O)c1ccc(Sc2nc(N)c(C#N)c(-c3cccc(O)c3)c2C#N)cc1 | – | – | 70% | – |
| COC(=O)c1ccc(Sc2nc(N)c(C#N)c(-c3cccs3)c2C#N)cc1 | – | – | 90% | – |
| COC(=O)c1cccc(Sc2nc(N)c(C#N)c(-c3ccco3)c2C#N)c1 | 26.9% | 2.2% | 69% | – |
| N#Cc1c(N)nc(Sc2ccccc2O)c(C#N)c1-c1ccc2c(c1)OCCO2 | 13.6% | 4.9% | 89% | – |
| N#Cc1c(N)nc(SCc2ccccc2)c(C#N)c1-c1ccco1 | – | – | 111% | – |
| N#Cc1c(N)nc(Sc2ccc(O)cc2)c(C#N)c1-c1cccs1 | – | – | 86% | – |
| N#Cc1c(N)nc(SCc2ccccc2)c(C#N)c1-c1ccc2c(c1)OCO2 | – | – | 79% | – |
| COC(=O)c1cccc(Sc2nc(N)c(C#N)c(-c3ccc4c(c3)OCO4)c2C#N)c1 | 156% | 70.4% | 75% | – |
| N#Cc1c(N)nc(Sc2ccc(O)cc2)c(C#N)c1-c1cccc(O)c1 | – | – | 85% | – |
| COC(=O)c1ccc(-c2c(C#N)c(N)nc(SCc3ccccc3)c2C#N)cc1 | 9.3% | 0% | 107% | – |
| COC(=O)c1cccc(Sc2nc(N)c(C#N)c(-c3ccc4c(c3)OCCO4)c2C#N)c1 | – | – | – | inhibition at 0.05 µM [5]: 44% |
| N#Cc1c(N)nc(Sc2ccc(Cl)cc2)c(C#N)c1-c1ccc2c(c1)OCCO2 | – | – | 68% | – |
| COC(=O)c1ccc(-c2c(C#N)c(N)nc(Sc3ccc(Cl)cc3)c2C#N)cc1 | 10.6% | 2.4% | 73% | – |
| COC(=O)c1ccc(-c2c(C#N)c(N)nc(Sc3cccc(Cl)c3)c2C#N)cc1 | – | – | – | inhibition at 5 µM [9]: 46% |
| N#Cc1c(N)nc(SCc2ccccc2)c(C#N)c1-c1ccc2c(c1)OCCO2 | – | – | 94% | – |
| N#Cc1c(N)nc(Sc2ccc(Cl)cc2)c(C#N)c1-c1cccc(O)c1 | 15.7% | 8.9% | – | EC50 [4]: 3000 nM |
| COC(=O)c1ccc(Sc2nc(N)c(C#N)c(-c3ccc(C(=O)OC)cc3)c2C#N)cc1 | – | – | – | EC50 [4]: 9000 nM |
| N#Cc1c(N)nc(Sc2cccc(Cl)c2)c(C#N)c1-c1ccco1 | – | – | 94% | – |
| COC(=O)c1cccc(Sc2nc(N)c(C#N)c(-c3cccc(O)c3)c2C#N)c1 | – | – | 123% | – |
| N#Cc1c(N)nc(Sc2ccccc2O)c(C#N)c1-c1cccs1 | 16.9% | 6.1% | 65% | – |
| N#Cc1c(N)nc(Sc2ccc(O)cc2)c(C#N)c1-c1ccco1 | 21.9% | 19.6% | – | inhibition at 0.05 µM [5]: 24% |
| COC(=O)c1cccc(Sc2nc(N)c(C#N)c(-c3cccs3)c2C#N)c1 | – | – | 87% | – |
| N#Cc1c(N)nc(Sc2ccccc2)c(C#N)c1-c1ccc2c(c1)OCO2 | – | – | 86% | – |
